Common to all, as to assay type: cell-based
Assay [1] concerns Pseudomonas aeruginosa strain H1001 fliC::luxCDABE. Briefly: Luminescence (lux) killing assay, peptides cleaved from cellulose support. Further details: key: − for minimal or no activity; + for weak activity; +/++ for intermediate activity; ++ strong activity. The following applies: P. aeruginosa strain H1001, 4 hours incubation, luminescence as indicator. The procedure:
Assay for the cleaved peptides from cellulose support. The peptides were cleaved from the dried membrane in an ammonia atmosphere overnight, resulting in free peptides with an amidated C-terminus. The free peptides contained two β-alanines at the C-terminus, in addition to being amidated due to the linker between the cellulose membrane and the peptide sequence. The peptide spots were punched out and transferred in a 96-well microtiter plate. Serial dilutions were carried out from the membrane spots. Four rows were filled with four controls including 2×Bac2A and 2× an unrelated peptide. The other eight rows were used for serial dilution steps of the peptide variants. An overnight culture of Pseudomonas aeruginosa strain H1001 was diluted 1:500 using either LB media or 100 mM Tris buffer pH 7.3, 20 mM glucose and was added to the wells (100 μl/well) containing the peptide spots. In all other wells 50 μl were added. The microtiter plate was incubated for 30 min at 37° C. to release the peptides from the membrane. Subsequently, a dilution series were performed and the plate was incubated at 37° C. The luminescence produced by the FMN dependent luciferase system were detected in a time dependent manner using a Tecan Spectra Fluor plus.
(§1) Strains. For the killing assay a mini-Tn5-lux mutant in Pseudomonas aeruginosa H103 was used. The strain is called H1001 and contains a fliC::luxCDABE transcriptional fusion resulting in constitutive expression of luciferase. The bacterial strains used for the antimicrobial activity assays included Escherichia coli UB1005 (F-, nalA37, metB1), a wild-type Salmonella enterica ssp. typhimurium (S. typhimurium), wild-type Pseudomonas aeruginosa PAO1 strain H103, Enterococcus faecalis ATCC29212, Staphylococcus aureus ATCC25923, and a clinical isolate of Staphylococcus epidermidis obtained from Dr. D. Speert (Department of Medicine, University of British Columbia). Antifungal activity was tested using a lab isolate of Candida albicans obtained from Dr. B. Dill (Department of Microbiology and Immunology, University of British Columbia).
Peptide synthesis on cellulose is a very effective and inexpensive way to investigate many different peptide variants for one particular activity. However, one of the problems of this technique is the low peptide amount synthesized on the membrane, about 280 nmol per cm^2. An average peptide spot used for the experiments presented is about 0.3 cm^2. Therefore, an assay had to be developed that was sensitive enough to show activity with this amount of peptides. P. aeruginosa H1001 has a luciferase gene cassette incorporated into the bacterial chromosome in a gene fliC (involved in flagellar biosynthesis) that is constitutively expressed. It will thus produce light if FMN is present. When this strain is killed, e.g. by peptides, the amount of light produced will decrease due to a decrease in FMN levels in the killed cells. This action can thus be monitored by detecting luminescence in a microtiter plate luminescence reader over time. The volume and amount of cells per well were optimized for this assay. After screening, we were able to monitor the killing action with small amounts of the parent peptide Bac2A (2 μg/ml of free peptide).

Assay [2] relates to Pseudomonas aeruginosa PAO1 strain H103. The settings on record: for MIC P. aerug / MIC: PAO1; for antimicrobial activity against P. aeruginosa PAO1 (in words): laboratory strain P. aeruginosa PAO1. The procedure: The biological activity of the peptides can be determined by standard methods known to those of skill in the art, such as “minimal inhibitory concentration (MIC)” assay described in the present examples, whereby the lowest concentration at which no change in OD is observed for a given period of time is recorded as MIC.
(§2) Minimal inhibitory concentration (MIC) determination. The MIC of the peptides were measured using a modified broth microdilution method in Mueller Hinton (MH) medium (Wu M, Hancock R E W. 1999. Interaction of the cyclic antimicrobial cationic peptide bactenecin with the outer and cytoplasmic membrane. J Biol Chem 274, 29-35). Briefly, the peptides were dissolved and stored in glass vials. The assay was performed in sterile 96-well polypropylene microtitre plates were used. Serial dilutions of the peptides to be assayed were performed in 0.01% acetic acid (Fisher) containing 0.2% bovine serum albumin (Boehringer Mannheim GmbH) at 10× the desired final concentration. Ten microlitres of the 10× peptides were added to each well of a 96-well polypropylene plate containing 90 μl of MH media per well. Bacteria were added to the plate from an overnight culture at 2-7×10^5 colony forming units/ml and incubated over night at 37° C. The MIC was taken as the concentration at which no growth was observed.
as §1

Assay [3] deals with wild-type Salmonella enterica ssp. typhimurium. The procedure: as §2, §1
The subject of assay [4] is Enterococcus faecalis ATCC29212. The settings on record: ATCC29212. The procedure: as §2, §1
The test system of assay [5] is Staphylococcus aureus ATCC25923. The following applies: ATCC25923. The procedure: as §2, §1
The subject of assay [6] is clinical isolate of Staphylococcus epidermidis. The following applies: clinical isolate of. The procedure:
as §2, §1

The test system of the next assay is Escherichia coli UB1005. The procedure: as §2, §1
The test system of assay [7] is lab isolate of Candida albicans. The following applies: lab isolate of. The procedure: as §2, §1

Converted amounts (≈) assume the structure as drawn. Read-outs that look alike come from different tables or passages of the source. Residues, ends and D or L forms follow the SMILES beside them.

In the case of KWWKWKK [HH1008], in assay [1], the Antimicrobial activity entry is “+”.

On to PWWPWRK [HH1001], for which the Antimicrobial activity entry in assay [1] was “−”.

In the case of `CC[C@H](C)[C@H](NC(=O)[C@H](CCCNC(=N)N)NC(=O)[C@H](CC(C)C)NC(=O)[C@H](CCCNC(=N)N)NC(=O)[C@@H](N)C(C)C)C(=O)N[C@@H](CCCNC(=N)N)C(=O)N[C@H](C(=O)N[C@@H](Cc1c[nH]c2ccccc12)C(=O)N[C@H](C(=O)N[C@H](C(=O)N[C@@H](CCCNC(=N)N)C(=O)N[C@@H](C)C(N)=O)[C@@H](C)CC)C(C)C)C(C)C` [HH6, VRLRIRVWVIRA] (H-VRLRIRVWVIRA-NH2), the “MIC P. aerug” value in assay [2] worked out at 12 µg/mL (≈ 7.81 µM). Moreover, the “MIC S. typhi” value in assay [3] was 12 µg/mL (≈ 7.81 µM). The “MIC E. faecalis” value in assay [4] was 6 µg/mL (≈ 3.91 µM). Moreover, the “MIC S. aureus” value in assay [5] was 6 µg/mL (≈ 3.91 µM). The “MIC S. epi.” value in assay [6] amounted to 1.6 µg/mL (≈ 1.04 µM). In addition, the “MIC E. coli” value in the assay with Escherichia coli UB1005 (UB1005) turned out to be 3 µg/mL (≈ 1.95 µM). The “MIC C. albicans” value in assay [7] stood at 25 µg/mL (≈ 16.3 µM).

On to KWRWWPWRR [HH978], for which the Antimicrobial activity result in assay [1] is given as “++”.

KWPWKPWRR [HH980]: in assay [1], the Antimicrobial activity entry was “+”.

With `CC[C@H](C)[C@H](NC(=O)[C@H](CCCNC(=N)N)NC(=O)[C@H](Cc1ccccc1)NC(=O)[C@H](CCCNC(=N)N)NC(=O)[C@@H](N)CCCCN)C(=O)N[C@@H](CCCNC(=N)N)C(=O)N[C@H](C(=O)N[C@@H](CCCNC(=N)N)C(=O)N[C@H](C(=O)N[C@H](C(=O)N[C@@H](CCCNC(=N)N)C(=O)N[C@@H](CCCCN)C(N)=O)[C@@H](C)CC)C(C)C)C(C)C` [HH15, KRFRIRVRVIRK] (H-KRFRIRVRVIRK-NH2), the “MIC P. aerug” value in assay [2] is 6 µg/mL (≈ 3.69 µM). In addition, the “MIC S. typhi” value in assay [3] turned out to be 3 µg/mL (≈ 1.84 µM). Also, the “MIC E. faecalis” value in assay [4] is 25 µg/mL (≈ 15.4 µM). The “MIC S. aureus” value in assay [5] was 6 µg/mL (≈ 3.69 µM). In addition, in assay [6], the “MIC S. epi.” value was 0.8 µg/mL (≈ 0.492 µM). Also, the “MIC E. coli” value against Escherichia coli UB1005 (UB1005) was 1.6 µg/mL (≈ 0.984 µM). For the same molecule, in assay [7], the “MIC C. albicans” value was 12 µg/mL (≈ 7.38 µM).

With KKKWWKWRR [HH987], the Antimicrobial activity result in assay [1] is “++”.

RFWKWRR [HH1004]: the Antimicrobial activity result in assay [1] was “+”.

In the case of `CC[C@H](C)[C@H](N)C(=O)N[C@@H](CC(C)C)C(=O)N1CCC[C@H]1C(=O)N[C@@H](Cc1c[nH]c2ccccc12)C(=O)N[C@@H](CCCCN)C(=O)N[C@@H](Cc1c[nH]c2ccccc12)C(=O)N[C@@H](CCCNC(=N)N)C(=O)N[C@@H](Cc1c[nH]c2ccccc12)C(=O)N[C@@H](Cc1c[nH]c2ccccc12)C(=O)N[C@@H](CCCCN)C(=O)N[C@@H](Cc1c[nH]c2ccccc12)C(=O)N[C@@H](CCCNC(=N)N)C(=O)N[C@@H](CCCNC(=N)N)C(N)=O` [HH971, ILPWKWRWWKWRR] (H-ILPWKWRWWKWRR-NH2; N-terminus assumed), in assay [2], the “MIC P. aerug” value stood at 16 µg/mL (≈ 8.01 µM). Also, the “MIC S. typhi” value in assay [3] turned out to be 16 µg/mL (≈ 8.01 µM). In addition, in assay [4], the “MIC E. faecalis” value was 31 µg/mL (≈ 15.5 µM). Besides, the “MIC S. aureus” value in assay [5] was determined as 8 µg/mL (≈ 4.01 µM). The “MIC S. epi.” value in assay [6] was 2 µg/mL (≈ 1 µM). Further, the “MIC E. coli” value with Escherichia coli UB1005 (indolicidin substitution variants (Table 4)) was found to be 8 µg/mL (≈ 4.01 µM). Further, in assay [7], the “MIC C. albicans” value was found to be 8 µg/mL (≈ 4.01 µM).

As for KFKFFKYRK [HH991], in assay [1], the Antimicrobial activity result was “+”.

For PKWPWRR [HH997], the Antimicrobial activity entry in assay [1] is recorded as “−”.

For the molecule KWRWWKKRR [HH986], the Antimicrobial activity entry in assay [1] is “++”.

In the case of KWWPWRR [HH994], in assay [1], the Antimicrobial activity entry is given as “+”.

RWWIKRR [HH1005]: in assay [1], the Antimicrobial activity result is recorded as “+/++”.

Take KFRWWPWRR [HH984]: the Antimicrobial activity entry in assay [1] is listed as “++”.

On to KWPKWPWRR [HH979], for which the Antimicrobial activity result in assay [1] was “+”.

As for KFRWWKWRR [HH985], in assay [1], the Antimicrobial activity entry is reported as “++”.

Regarding PWKPWRR [HH998], the Antimicrobial activity result in assay [1] was “−”.

With KFKWWKYRK [HH990], the Antimicrobial activity result in assay [1] is “++”.

KFHWWKWRK [HH989]: in assay [1], the Antimicrobial activity result is “++”.

Turning to `CSCC[C@H](NC(=O)[C@H](CCCNC(=N)N)NC(=O)[C@H](Cc1c[nH]cn1)NC(=O)[C@H](CCCNC(=N)N)NC(=O)[C@H](CO)NC(=O)CNC(=O)[C@H](CCCNC(=N)N)NC(=O)[C@H](Cc1ccccc1)NC(=O)[C@H](C)N)C(N)=O` [HHC152, AFRGSRHRM] (H-AFRGSRHRM-NH2; N-terminus assumed), in assay [2], the MIC stood at 506 µM (≈ 565 µg/mL) and the “antimicrobial activity against P. aeruginosa PAO1 (in words)” value is listed as “did not posses any antimicrobial activity”.

For the molecule PWWKWRR [HH999], in assay [1], the Antimicrobial activity entry was “+”.

For RWWIYRR [HH1006], the Antimicrobial activity entry in assay [1] is listed as “+”.

In the case of KWPWWPWRK [HH975], the Antimicrobial activity entry in assay [1] is given as “+”.

Take KFFKFKK [HH1009]: the Antimicrobial activity result in assay [1] is “−”.

Regarding RWWKWRR [HH1002], the Antimicrobial activity entry in assay [1] is “++”.

With RFFKFRR [HH1007], in assay [1], the Antimicrobial activity entry is reported as “−”.

As for PWWPWRR [HH993], the Antimicrobial activity entry in assay [1] is “+”.

On to KWPWWPKRR [HH982], for which, in assay [1], the Antimicrobial activity entry is “+”.

As to PWWPKRR [HH1000], the Antimicrobial activity result in assay [1] is listed as “−”.

Consider RWWKWRK [HH1003], for which the Antimicrobial activity entry in assay [1] was “+/++”.

With `CC[C@H](C)[C@H](NC(=O)[C@H](CCC(N)=O)NC(=O)[C@H](CCCNC(=N)N)NC(=O)[C@H](CCCNC(=N)N)NC(=O)CNC(=O)[C@@H](N)CCCNC(=N)N)C(=O)NCC(=O)N[C@@H](CCCCN)C(=O)N[C@@H](Cc1ccccc1)C(N)=O` [HHC189, RGRRQIGKF] (H-RGRRQIGKF-NH2; N-terminus assumed), in assay [2], the MIC was 379 µM (≈ 423 µg/mL) and the “antimicrobial activity against P. aeruginosa PAO1 (in words)” value is “did not posses any antimicrobial activity”.

As to KWPWWKWRR [HH981], the Antimicrobial activity result in assay [1] is listed as “++”.

For the molecule `CSCC[C@H](NC(=O)CNC(=O)[C@H](Cc1c[nH]c2ccccc12)NC(=O)[C@H](CCCNC(=N)N)NC(=O)[C@H](CCCNC(=N)N)NC(=O)CN)C(=O)NCC(=O)N[C@H](C(=O)N[C@@H](CCCNC(=N)N)C(N)=O)C(C)C` [HHC183, GRRWGMGVR] (H-GRRWGMGVR-NH2; N-terminus assumed), in assay [2], the MIC stood at 360 µM (≈ 386 µg/mL) and the “antimicrobial activity against P. aeruginosa PAO1 (in words)” value is “did not posses any antimicrobial activity”.

With RWWPWRR [HH996], the Antimicrobial activity result in assay [1] was “+”.

KFKFFKFRK [HH992]: the Antimicrobial activity result in assay [1] is listed as “+”.

As for KFHWWIWRK [HH988], the Antimicrobial activity result in assay [1] is given as “++”.

In the case of KWPWWPWRR [HH983], the Antimicrobial activity entry in assay [1] is on record as “+/++”.

With KKPWWPWRR [HH977], the Antimicrobial activity result in assay [1] is recorded as “+”.

With PWWKWRR [HH995], the Antimicrobial activity entry in assay [1] is reported as “+/++”.

With KFPWWPWRR [HH976], in assay [1], the Antimicrobial activity result is given as “+”.

Values taken from patent publication US8343475B2, “Small cationic antimicrobial peptides” (priority 2006, dated 2013).
